One molecule from patent publication US20230405134A1, “NOVEL PROTAC CHIMERIC COMPOUND, AND PHARMACEUTICAL COMPOSITION COMPRISING SAME FOR PREVENTING, AMELIORATING, OR TREATING DISEASES THROUGH TARGET PROTEIN DEGRADATION” (POSTECH RESEARCH AND BUSINESS DEVELOPMENT FOUNDATION, priority 2020, published 2023) can be followed below.

One data set concerns the target T1, SRC-1/ND1-YL2/UBR box (UniProt P19812+Q15788).
T1 construct: PAS-B domain of human SRC-1 (residues 257-385) tagged with His6; UBR box (residues 113-194) in the UBR1 E3 ubiquitin ligase of S. cerevisiae; His6 (cleaved yes); made in house; host or cells: E. coli BL21 (DE3) pLysS (SRC-1 PAS-B)
T1 sequence (Q15788 257-385): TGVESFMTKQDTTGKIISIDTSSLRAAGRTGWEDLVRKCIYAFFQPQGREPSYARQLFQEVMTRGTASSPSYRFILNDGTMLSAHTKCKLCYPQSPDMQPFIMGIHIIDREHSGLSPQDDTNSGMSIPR
T1 sequence (P19812 113-194): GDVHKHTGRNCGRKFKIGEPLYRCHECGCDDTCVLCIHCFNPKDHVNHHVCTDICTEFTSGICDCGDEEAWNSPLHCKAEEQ
The data set can be described thus: SEC-MALS ternary complex formation. It counts as binding. Conditions: SRC-1 alone 20 kDa, UBR box alone 12 kDa. As to the method: (§1) An expression plasmid of the PAS-B domain of human SRC-1 (residues 257-385) tagged with His6 was provided by Professor John. A. Robinson. (ChemBioChem 2008, 9, 1318-1322). The plasmid was transformed into BL21 (DE3) pLysS cells, and the protein was cultured in Luria-Bertani broth medium and induced with 0.5 mM IPTG at 18° C. for 16 hours. Cell disruption was performed by ultrasonic treatment in a buffer (50 mM Tris-HCl pH 8.0, 200 mM NaCl and 1 mM TCEP), and insoluble materials were removed by centrifugation. HisTrap™ column (GE Healthcare, 17-5255-01) chromatography was performed on the buffer and 500 mM of imidazole was applied for elution. In order to remove the His6-tag, TEV protease was used and the cleaved samples were loaded in HisTrap™ as described above. The SRC-1 was further purified by size exclusion chromatography (HiLoad™ 16/600 Superdex 75 pg) in a final buffer of 20 mM Tris-HCl pH 7.5, 150 mM NaCl and 1 mM TCEP. […]
The next step was to confirm whether ND1-YL2 could indeed form a ternary complex. […] Light scattering and differential refractive index data were collected and analyzed using ASTRA®V software (Wyatt Technology) (FIG. 12A). The individual molecules SRC-1 and UBR box had molecular masses of 20 and 12 kDa, respectively, and were detected to be 40 kDa in the presence of ND1-YL2, which is a result showing that a ternary complex was formed (FIG. 12A).
(In gel filtration, larger molecules generally elute earlier.)

Another data set concerns MDA-MB-231. The data set is described as follows: Cell viability assay. The note with it: MDA-MB-231, various concentrations, 48 hours. The format is cell-based, human. The protocol:
(§2) To further confirm the above results, an MTT cell viability assay was performed. MDA-MB-231 (1×10^4 cells/well), HEK293T (1×10^4 cells/well) and Colo205 (2×10^4 cells/well) cells were seeded in a 96-well plate, and cultured under the conditions of 37° C. and 5% carbon dioxide. After 24 hours, the cells were washed twice with DPBS and treated with DMSO or various concentrations of ND1-YL2 in Opti-MEM medium for 48 hours. Cell viability was measured by the Cyto X cell viability assay kit (LPS solution) according to the manufacturer's instructions.

The subject of the next data set is Colo205. The data set can be described thus: Cell viability assay. Conditions: Colo205, various concentrations, 48 hours. The format is cell-based, human. The protocol: as §2
The target of another data set is T2, PAS-B domain of SRC-1 (Homo sapiens, UniProt Q15788).
T2 construct: PAS-B domain of human SRC-1 (residues 257-385) tagged with His6; His6 (cleaved yes); made in house; host or cells: E. coli BL21 (DE3) pLysS
T2 sequence (Q15788 257-385): T1 sequence (Q15788 257-385)
The data set is described as follows: Competitive fluorescence polarization (FP) assay against fluorescently labeled STAT-6 peptide. It counts as binding. The note with it: STAT-6 peptide 100 nM, PAS-B domain 5 μM. As to the method: as §1, with “above.” for “above. The SRC-1 was further purified by size exclusion chromatography (HiLoad™ 16/600 Superdex 75 pg) in a final buffer of 20 mM Tris-HCl pH 7.5, 150 mM NaCl and 1 mM TCEP.”
A competitive fluorescence polarization (FP) assay was performed to evaluate the binding affinity of ND1-YL2 to the target protein. […] After further incubation for 1 hour, the polarization of fluorescence was measured by a Tecan F200 microplate reader (excitation wavelength: 485 nm; emission wavelength: 535 nm). IC50 values were determined using non-linear regression and fitted with GraphPad Prism® 4 software using the following equation: Y=Bottom+(Top-Bottom)/(1+10^X-LogIC50) (FIG. 11A). […] The binding affinity was calculated as described above (FIG. 11B).
Background: In fluorescence polarisation assays a small probe gives low polarisation when free and higher when bound to something large.

The next data set relates to MDA-MB-231 cells. The data set is described as follows: Gap closure migration assay. It counts as cell-based, human. The note with it: 20 μM, 72 hours. As to the method:
Based on the results that the SRC-1 degradation effectively affects the transcription mediated by SRC-1 (FIGS. 18A and 18B), it was predicted that ND1-YL2 would exert an inhibitory effect on downstream signaling pathways such as increased cancer cell migration and invasion. To test this, we first performed a gap closure migration assay using an invasive MDA-MB-231 cell line. MDA-MB-231 cells (70 μL of 4×10^5 cells/mL) were seeded in culture insert 2 wells (ibidi, 80209) pre-inserted into p-dishes (ibidi) under the conditions of 37° C. and 5% CO2. The culture insert 2 wells was gently removed with sterile tweezers. The cells were treated with DMSO, YL2 (20 […]), RLAA (20 μM) or ND1-YL2 (20 μM) in Opti-MEM medium for 72 hours. Images were obtained by a camera (Olympus) attached to an optical microscope. The cells were grown in the culture insert wells, and the inserts were removed to create intercellular gaps inside the wells. Subsequently, after treated with DMSO, YL2, RLAA peptide or ND1-YL2, the cells were cultured for 72 hours and the degree of cell migration was observed. The cell migration was quantified by analyzing the images of cells filling the gap.

In general, Ki refers to a dissociation constant, usually derived from enzyme kinetics or from competition with a known ligand. Read a high Ki as a looser hold on the target.

Where a SMILES comes first, the peptide text is derived from it. Bridges are numbered along the chain shown (N, C = ends). [ ]: non-standard residue; d: D form. Cha = N[C@@H](CC1CCCCC1)C(=O)O; S5 = C=CCCC[C@](C)(N)C(=O)O

Consider `CC(C)C[C@H](NC(=O)[C@H](C)NC(=O)[C@H](C)NC(=O)[C@H](C)NC(=O)[C@H](C)NC(=O)[C@H](CC(C)C)NC(=O)[C@@H](N)CCCNC(=N)N)C(=O)N[C@@H](CC(C)C)C(=O)N1CCC[C@H]1C(=O)N1CCC[C@H]1C(=O)N[C@H](C(=O)N[C@@H](CCC(=O)O)C(=O)N[C@@H](CCC(N)=O)C(=O)N[C@@H](CC(=O)O)C(=O)N[C@@H](CC(C)C)C(=O)N[C@@]1(C)CCC/C=C\CCC[C@@](C)(C(=O)N[C@@H](Cc2ccc(O)cc2)C(N)=O)NC(=O)[C@H](CC2CCCCC2)NC(=O)[C@H](CC(C)C)NC(=O)[C@H](CCCCN)NC1=O)[C@@H](C)O` [ND1-YL2] (H-RLAAAALLPPTEQDL[S5]KL[Cha][S5]Y-NH2; staple (Z) 16-20), for which the “Molecular mass detected for SRC-1 and UBR box in the presence of compound” value on SRC-1/ND1-YL2/UBR box is 40 kDa. The “Effect on cell survival” value with MDA-MB-231 and in the data set on Colo205 was “did not significantly affect the survival” throughout. The molecule also displayed a Ki on PAS-B domain of SRC-1 of 320 nM. The “Existing gaps maintained (cell migration)” value in the data set on MDA-MB-231 cells is on record as “about 80%”.
